Experimental data from ChEMBL document CHEMBL1240309 (Nat Chem Biol, 2006).
The source made the active and inactive calls. The calls are words filed in the database; no cut-off is given here.

Columns and labels:
Caenorhabditis elegans [1] = experiment: Antiapoptotic activity against Caenorhabditis elegans ced-9(n1950) mutant assessed as number of extra cells in anterior pharynx L3 and L4 larvae at 250 mM dissolved in soybean oil; assay type: functional, organism-based
[2] = Octanol-water partition coefficient, log P of the compound; assay type: physicochemical
Caenorhabditis elegans [3] = experiment: Antiapoptotic activity against Caenorhabditis elegans ced-3(n2433) mutant assessed as number of extra cells in anterior pharynx L3 and L4 larvae at 250 mM dissolved in soybean oil; assay type: functional, organism-based
Caenorhabditis elegans [4] = experiment: Antiapoptotic activity against Caenorhabditis elegans ced-8(n1891) mutant assessed as number of extra cells in anterior pharynx L3 and L4 larvae at 250 mM dissolved in soybean oil; assay type: functional, organism-based
Caenorhabditis elegans [5] = experiment: Antiapoptotic activity against Caenorhabditis elegans ced-3(n2438) G474R mutant assessed as number of extra cells in anterior pharynx L3 and L4 larvae at 250 mM dissolved in soybean oil; assay type: functional, organism-based
Caenorhabditis elegans [6] = experiment: Antiapoptotic activity against Caenorhabditis elegans ced-4(n2273) mutant assessed as number of extra cells in anterior pharynx L3 and L4 larvae at 250 mM dissolved in soybean oil; assay type: functional, organism-based
Caenorhabditis elegans [7] = experiment: Antiapoptotic activity against Caenorhabditis elegans ced-3(n2436) mutant assessed as number of extra cells in anterior pharynx L3 and L4 larvae at 250 mM dissolved in soybean oil; assay type: functional, organism-based
Caenorhabditis elegans [8] = experiment: Antiapoptotic activity against Caenorhabditis elegans ced-3(n2447) S446L mutant assessed as number of extra cells in anterior pharynx L3 and L4 larvae at 250 mM dissolved in soybean oil; assay type: functional, organism-based
Caenorhabditis elegans [9] = experiment: Antiapoptotic activity against Caenorhabditis elegans ced-3(n2438) mutant assessed as number of extra cells in anterior pharynx at 50 to 250 mM dissolved in soybean oil; assay type: functional, organism-based

Structure (SMILES) | Activity (Caenorhabditis elegans [1]) | logP [2] | Activity (Caenorhabditis elegans [3]) | Activity (Caenorhabditis elegans [4]) | Activity (Caenorhabditis elegans [5]) | Activity (Caenorhabditis elegans [6]) | Activity (Caenorhabditis elegans [7]) | Activity (Caenorhabditis elegans [8]) | Activity (Caenorhabditis elegans [9])
Clc1ccc(Cl)cc1 [1,4-DICHLOROBENZENE] | Active | 3.5 | Active | Active | Active | Active | Active | Active | –
CCCCC(CC)COC(=O)c1ccccc1C(=O)OCC(CC)CCCC (centres undefined) | – | – | – | – | – | – | – | – | inactive
